Reference: patent US10221440B2, “Method for determining the sensitivity of microorganisms to antimicrobial substances” (priority 2012, dated 2019)

Columns and labels:
[1] = test system: bacteria in secretion from the wound of a dog with a wound infection; assay: Express determination of bacteria sensitivity, wound secretion of a dog; type: cell-based; settings: ampicillin 1 μg/ml in enriched Columbia Agar, 37° C., lawn in control after 4-6 hours
Description: Express determination of bacteria sensitivity to ampicillin while inoculating material obtained from an animal (a dog) with a wound infection.
The method was carried out similarly to the way described in example 1.
Material to be investigated: secretion from the wound.
Nutrient medium: Columbia Agar medium enriched with horse serum and sheep red blood cells, vitamins and amino acids. Ampicillin was added to the medium in maximum concentration achievable at the location where the material was taken—1 μg/ml.
Material taken from the wound was plated using a swab on the medium in a Petri dish. Same medium and cultivation conditions (without ampicillin) were used for control purposes.
The culture was incubated at temperature of 37° C.

[2] = test system: bacteria in urine of a patient suffering from cystitis; type: cell-based
[3] = test system: aerobes in secretion of subgingival space of a patient with a disease of periodontium; assay: Sensitivity to antibiotics and their mixture, subgingival secretion, aerobic conditions; type: cell-based, aerobic bacteria; settings: Columbia Agar, dishes 1-3, 37° C., whole observation period; lawn in control after 4 hours
From the text: (§1) Express determination of sensitivity to a mixture of antibiotics, namely gentamicin (mainly affects aerobic bacteria) and metronidazole (active against anaerobic bacteria and microaerophils), while inoculating material obtained from a patient suffering from a disease of periodontium. Material to be investigated: freshly collected secretion of subgingival space. Nutrient medium: Columbia Agar medium enriched with sheep red blood cells and horse serum was used for cultivation in aerobic conditions. Anaerobic microorganisms were detected using Schaedler Agar containing sheep red blood cells and serum. […] were added to the medium: gentamicin (active against a wide range of aerobes) and metronidazole that selectively affects anaerobic bacteria. Medium in dishes 1 and 1a contains gentamicin; medium in dishes 2 and 2a contains metronidazole; medium in dishes 3 and 3a contains gentamicin and metronidazole; dishes 4 and 4a contain only the nutrient medium (control). The secretion of subgingival space was diluted fivefold using isotonic solution of sodium chloride and plated in the amount of 0.05 ml per dish using a spreader. […] The results were analyzed after 4, 8, 12, 20, 24 and 48 hours after the inoculation (anaerobic bacteria are characterized by lengthy growth).

[4] = test system: anaerobes in secretion of subgingival space of a patient with a disease of periodontium; assay: Sensitivity to antibiotics and their mixture, subgingival secretion, anaerobic conditions; type: cell-based, anaerobic bacteria; settings: Schaedler Agar, dishes 1a-3a, 37° C., after 8 hours
From the text: as §1

[5] = test system: fungi that cause diseases of plants (powdery mildew); assay: Express determination of sensitivity of plant-disease fungi to antifungal preparations; type: cell-based; settings: 30° C., nystatin 0.4 mg/l; for growth in the well with the antifungal preparation: Sabouraud Agar with gentamicin 0.01 mg/l, after 8 hours, propiconazole 1%
Description: Express determination of the sensitivity of fungi that cause diseases of plants (powdery mildew) to antifungal preparations.
Material to be investigated: wipe sampling of isotonic solution of sodium chloride taken from affected areas of a leaf of a plant that has indications of fungi growth.
Nutrient medium: Sabouraud Agar medium enriched with mineral components, placed into a plate with six wells. in order to prevent the growth of bacteria, gentamicin was added to the agar in the amount of 0.01 mg/l. The antifungal preparations to be investigated were also added to the medium: 1st well—propiconazole, in final concentration of 1%; 2nd well—nystatin (0.4 mg/l); 3rd well—control without any antifungal preparations.
1.0 ml of isotonic solution a sodium chloride was washed from […] of the affected area. The material was plated using an inoculation loop.
The inoculations were cultivated at 30° C. The results were analyzed after 6, 8, 12, 20, 24 and 48 hours after the inoculation.

Compound	microbial growth in aerobic conditions [3]	microbial growth in anaerobic conditions [4]	growth in the well with the antifungal preparation [5]	further results
CC1(C)S[C@@H]2[C@H](NC(=O)[C@H](N)c3ccccc3)C(=O)N2[C@H]1C(=O)O [ampicillin]				bacterial growth in the dish with the antibiotic [1]: No bacterial growth
CC[C@H]1OC(=O)[C@H](C)[C@@H](O[C@H]2C[C@@](C)(OC)[C@@H](O)[C@H](C)O2)[C@H](C)[C@@H](O[C@@H]2O[C@H](C)C[C@H](N(C)C)[C@H]2O)[C@](C)(O)C[C@@H](C)CN(C)[C@H](C)[C@@H](O)[C@]1(C)O [azithromycin]				growth of bacteria in the presence of the antibiotic [2]: no growth
Cc1ncc([N+](=O)[O-])n1CCO [metronidazole]	Microbial growth	Microbial growth		
C[C@@H]1[C@H](O)[C@@H](C)/C=C/C=C/CC/C=C/C=C/C=C/C=C/C(O[C@H]2O[C@H](C)[C@@H](O)[C@H](N)[C@@H]2O)CC2O[C@](O)(CC(O)C(O)CCC(O)CC(O)CC(O)CC(=O)O[C@H]1C)CC(O)C2C(=O)O (stereo partly drawn) [nystatin]			growth was observed	sensitivity of the mold to the preparation [5]: resistant
CCCC1COC(Cn2cncn2)(c2ccc(Cl)cc2Cl)O1 (stereo not drawn) [propiconazole]			No growth	
gentamicin	Microbial growth	Microbial growth		
